Data reported in ChEMBL document CHEMBL5154919, “New ZW4864 Derivatives as Small-Molecule Inhibitors for the β-Catenin/BCL9 Protein-Protein Interaction” (ACS Med Chem Lett, 2022).
The source made the active and inactive calls. The rule behind the calls is not given here.

Tests used:
MDA-MB-468 = test: Antiproliferative activity against human MDA-MB-468 cells assessed as inhibition of cell growth measured by MTS method; type: functional, cell-based
[1] = target: beta-catenin-B-cell lymphoma 9 protein complex (Homo sapiens) (UniProt P35222+O00512); test: Disruption of beta-catenin/N-terminal biotinylated human BCL9 HD2 (350 to 375 residues) protein-protein interaction in human SW480 cells incubated for 1 hr followed by N-terminal biotinylated human BCL9 HD2 addition and measured after 2 hrs by immunoblot based pull-down assay; type: cell-based; settings: time 3.0 hrs, DDE = dose-dependent effect
MDA-MB-231 = test: Antiproliferative activity against human MDA-MB-231 cells assessed as inhibition of cell growth measured by MTS method; type: functional, cell-based
[2] = Metabolic stability in mouse Hepatocyte assessed as half life; type: ADME, cell-based; settings: hepatocytes
CYP1A2 = target: T1, CYP1A2 (Homo sapiens, UniProt P05177); test: Inhibition of CYP1A2 in human liver microsomes using phenacetin at 10 uM in presence of NADPH incubated for 10 mins; type: ADME, Microsome; settings: probe phenacetin
T1 sequence (P05177 whole entry): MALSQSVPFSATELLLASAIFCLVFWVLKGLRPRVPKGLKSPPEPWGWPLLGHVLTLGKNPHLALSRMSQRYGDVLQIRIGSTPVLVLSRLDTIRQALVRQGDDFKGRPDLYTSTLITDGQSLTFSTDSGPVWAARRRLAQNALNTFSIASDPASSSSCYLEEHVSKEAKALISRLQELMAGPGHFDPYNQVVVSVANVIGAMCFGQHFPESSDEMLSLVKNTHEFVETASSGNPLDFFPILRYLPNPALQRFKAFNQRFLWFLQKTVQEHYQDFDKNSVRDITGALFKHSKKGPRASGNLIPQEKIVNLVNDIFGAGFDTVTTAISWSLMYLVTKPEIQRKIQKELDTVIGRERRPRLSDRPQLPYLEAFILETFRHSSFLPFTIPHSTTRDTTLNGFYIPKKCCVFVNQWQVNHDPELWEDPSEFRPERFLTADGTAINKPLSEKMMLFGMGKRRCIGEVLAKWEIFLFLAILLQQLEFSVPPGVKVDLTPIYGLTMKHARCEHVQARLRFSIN

[3] = Effect of Wnt/beta-Catenin signaling pathway in human SW480 cells assessed as reduction in Axin2 level at 5 uM incubated for 24 hrs by qRT-PCR analysis relative to control; type: functional; settings: SW480, 24 h
[4] = Effect of Wnt/beta-Catenin signaling pathway in human SW480 cells assessed as reduction in BCL9L level at 20 uM incubated for 24 hrs by qRT-PCR analysis relative to control; type: functional; settings: SW480, 24 h
[5] = Effect of Wnt/beta-Catenin signaling pathway in human SW480 cells assessed as reduction in BCL9L level at 5 uM incubated for 24 hrs by qRT-PCR analysis relative to control; type: functional; settings: SW480, 24 h
[6] = Effect of Wnt/beta-Catenin signaling pathway in human SW480 cells assessed as HPRT level at 10 uM incubated for 24 hrs by qRT-PCR analysis relative to control; settings: SW480, 24 h
CYP2C9 = CYP2C9 (Homo sapiens, UniProt P11712); test: Inhibition of CYP2C9 in human liver microsomes using tolbutamide as substrate at 10 uM in presence of NADPH incubated for 10 mins; type: ADME, Microsome; settings: probe tolbutamide
SW480 [7] = test: Inhibition of Wnt/beta-catenin transactivation signalling in human SW480 cells transfected with beta-catenin plasmid at 10 uM by TOPFlash luciferase assay; type: cell-based
SW480 [8] = test: Effect of Wnt/beta-Catenin signaling pathway in human SW480 cells assessed as decrease in Cyclin D1 level at 20 uM incubated for 24 hrs by Western blot analysis; type: functional, cell-based; settings: DDE = dose-dependent effect
[9] = Effect of Wnt/beta-Catenin signaling pathway in human SW480 cells assessed as reduction in Cyclin D1 level at 10 uM incubated for 24 hrs by qRT-PCR analysis relative to control; type: functional; settings: SW480, 24 h
[10] = Inhibition of Wnt/beta-catenin transactivation signalling in human SW480 cells by TOPFlash reporter gene assay; type: cell-based
[11] = Effect of Wnt/beta-Catenin signaling pathway in human SW480 cells assessed as reduction in Axin2 level at 20 uM incubated for 24 hrs by qRT-PCR analysis relative to control; type: functional; settings: SW480, 24 h
[12] = Metabolic stability in human Hepatocyte assessed as half life; type: ADME, cell-based; settings: hepatocytes
MCF-10A = test: Antiproliferative activity against human MCF-10A cells assessed as inhibition of cell growth measured by MTS method; type: functional, cell-based
SW480 [13] = test: Antiproliferative activity against human SW480 cells assessed as inhibition of cell growth measured by MTS method; type: functional, cell-based
[14] = Effect of Wnt/beta-Catenin signaling pathway in human SW480 cells assessed as reduction in Axin2 level at 10 uM incubated for 24 hrs by qRT-PCR analysis relative to control; type: functional; settings: SW480, 24 h
[15] = Effect of Wnt/beta-Catenin signaling pathway in human SW480 cells assessed as reduction in BCL9L level at 10 uM incubated for 24 hrs by qRT-PCR analysis relative to control; type: functional; settings: SW480, 24 h
CYP3A4 = CYP3A4 (Homo sapiens, UniProt P08684); test: Inhibition of CYP3A4 in human liver microsomes using Midazolam as substrate at 10 uM in presence of NADPH incubated for 10 mins; type: ADME, Microsome; settings: probe midazolam
SW480 [16] = test: Effect of Wnt/beta-Catenin signaling pathway in human SW480 cells assessed as decrease in Axin2 level at 20 uM incubated for 24 hrs by Western blot analysis; type: functional, cell-based; settings: DDE = dose-dependent effect

Sequence of CYP2C9 (P11712 whole entry): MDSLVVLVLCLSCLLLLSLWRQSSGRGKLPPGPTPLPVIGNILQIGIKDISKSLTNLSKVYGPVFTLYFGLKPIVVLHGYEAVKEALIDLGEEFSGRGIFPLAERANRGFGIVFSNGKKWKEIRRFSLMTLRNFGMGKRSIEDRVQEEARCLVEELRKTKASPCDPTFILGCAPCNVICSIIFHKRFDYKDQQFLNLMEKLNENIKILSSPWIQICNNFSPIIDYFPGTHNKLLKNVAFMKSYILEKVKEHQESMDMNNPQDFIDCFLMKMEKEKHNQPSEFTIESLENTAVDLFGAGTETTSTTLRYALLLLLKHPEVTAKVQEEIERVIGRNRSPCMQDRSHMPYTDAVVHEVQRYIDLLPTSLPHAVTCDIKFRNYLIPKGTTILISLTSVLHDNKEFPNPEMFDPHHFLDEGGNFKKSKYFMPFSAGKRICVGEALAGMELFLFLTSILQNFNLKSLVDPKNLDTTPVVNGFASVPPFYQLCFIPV
Sequence of CYP3A4 (P08684 whole entry): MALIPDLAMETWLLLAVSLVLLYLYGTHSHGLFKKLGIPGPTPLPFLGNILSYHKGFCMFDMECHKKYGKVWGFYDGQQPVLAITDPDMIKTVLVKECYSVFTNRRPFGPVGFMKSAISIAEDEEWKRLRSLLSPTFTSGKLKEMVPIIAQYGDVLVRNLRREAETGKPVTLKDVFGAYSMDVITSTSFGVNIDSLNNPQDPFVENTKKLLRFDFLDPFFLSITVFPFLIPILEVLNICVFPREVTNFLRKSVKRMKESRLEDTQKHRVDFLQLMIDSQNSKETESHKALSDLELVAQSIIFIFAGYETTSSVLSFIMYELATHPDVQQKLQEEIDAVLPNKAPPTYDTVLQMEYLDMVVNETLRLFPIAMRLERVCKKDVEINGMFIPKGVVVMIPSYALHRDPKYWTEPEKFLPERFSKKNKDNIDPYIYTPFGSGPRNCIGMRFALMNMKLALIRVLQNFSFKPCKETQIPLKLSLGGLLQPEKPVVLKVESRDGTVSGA

IC50 (MDA-MB-468): 5 µM | inhibition [1]: Dde | IC50 (MDA-MB-231): 6.3 µM | half-life [2]: 11.6 min | inhibition at 10 min, 10 µM (CYP1A2): 31% | inhibition at 10 min, 10 µM (CYP2C9): 91% | IC50 [10]: 7 µM | half-life [12]: 25.2 min | IC50 (SW480 [13]): 14 µM | inhibition at 10 min, 10 µM (CYP3A4): 97%
Compound: CC(C)(Oc1cccc(N2CCC[C@@H](C(=O)N(Cc3ccc(-c4cnc5[nH]ccc5c4)cc3)C3CC3)C2)c1)C(=O)N1CCNCC1.Cl
level, % of control at 5 µM [3]: 72% | level, % of control at 20 µM [4]: 32% | level, % of control at 5 µM [5]: 77% | level, % of control at 10 µM [6]: 100% | inhibition (SW480 [7]): Active | inhibition (SW480 [8]): Dde | level, % of control at 10 µM [9]: 54% | level, % of control at 20 µM [11]: 19% | IC50 (MCF-10A): 36 µM | level, % of control at 10 µM [14]: 56% | level, % of control at 10 µM [15]: 52% | inhibition (SW480 [16]): Dde
